According to patent publication US12545637B2, “Extrahepatic targeted cationic lipid compound with high efficiency and low toxicity and its composition” (BEIJING YOUCARE KECHUANG PHARMACEUTICAL TECHNOLOGY CO., LTD., priority 2023, dated 2026):

Columns and labels:
female BALB/C mice [1] = assay: Distribution of liposomes in mice (protein expression in liver, spleen, lung, heart and kidney); assay type: in vivo
Method: (§1) The LNP formulation (prepared according to Example 4) containing […] Fluc-mRNA was injected intramuscularly into female BALB/C mice aged 4-6 weeks and weighed 17-19 g, and the mice were intraperitoneally injected with fluorescent imaging substrate at specific time points after administration (6h, 24 h, 48h and 7d), where the mice were allowed to free move for 5 minutes, and then the average radiation intensity (corresponding to fluorescence expression intensity) of the protein expression of the mRNA carried by the LNP in the mice was detected by the IVIS Spectrum small animal in vivo imaging system.
Current mRNA vaccines usually express proteins in muscle.

[2] = Particle size and polydispersity index (PDI) of lipid nanoparticles by dynamic light scattering; assay type: physicochemical; details: for PDI: LNP formulation of the cationic lipid, 25° C.; for Particle size: LNP formulation of the cationic lipid/DSPC/cholesterol/DMG-PEG2000 49:10:39.5:1.5, 25° C.
Method: The particle size and polydispersity index (PDI) were determined by dynamic light scattering using Malvern laser particle size analyzer.
10 μL of the liposome solution was weighed, diluted to 1 mL with RNase-free deionized water, and added to the sample pool. Each sample was measured in triplicate. The measurement conditions were: […] scattering angle, and 25° C.

293T cells [3] = assay: Cell survival rate assay (CCK-8); assay type: cell-based; details: LNP with 1.5 μg Fluc-mRNA, 24 hours, CCK-8
Method: Cell recovery and passage: 293T cells were recovered, cultured in a culture dish, and passaged to the required number of cells.
(§2) Seeding plate: The cells in the culture dish were digested and counted. Cells were spread in a 96-well plate at 10,000 cells per well and in a 12-well plate at 150,000 cells per well. Cells were cultured overnight until the cells adhered to the wall.
An LNP formulation containing 1.5 μg of Fluc-mRNA (prepared according to example 4, the carrier components of the LNP formulation were cationic lipid, neutral lipid, structured lipid and polymer-conjugated lipid at a molar ratio of 49:10:39.5:1.5, wherein the cationic lipid was listed in Table 1) and the formulation of Lipofectamine 3000 were added to the cell culture medium of a 96-well plate, and further cultivated for 24 hours. 10 μL of CCK-8 solution was then added to each well, and the culture plate was incubated in an incubator for 1 hour. The absorbance at 450 nm was measured by a microplate reader.

[4] = Detection of encapsulation efficiency, drug loading concentration and total RNA concentration (RiboGreen); assay type: physicochemical; details: LNP formulation prepared from the cationic lipid
From the text: Encapsulation efficiency is a key quality attribute of liposomes, which refers to the percentage of drug content encapsulated in the lipid bimolecular layer accounting for the total drug dose and can reflect the degree of drug encapsulation in liposomes. The Chinese Pharmacopoeia stipulates that the encapsulation efficiency should generally not be less than 80%.
The drug loading amount is the ratio of the amount of drug in the liposome to the total amount of drug and carrier in the liposome. The drug loading amount directly affects the clinical application dose of the drug. […] The drug loading concentration is proportional to the drug loading amount, and the relative proportion of the drug loading concentrations can represent the relative proportion of the drug loading amounts. The relative ratio of the total RNA concentrations may represent the relative ratio of the amounts of mRNA carried by the LNP formulations.
1×TE buffer, 0.1% Triton X-100 buffer, RiboGreen reagent (1: 200) and mRNA standard stock solution were prepared.
An appropriate amount of the sample was added to an appropriate amount of 1×TE buffer, and the mixture was diluted to obtain a solution containing approximately […] sample per 1 mL. Then the sample was added to a 96-well plate, and 50 μL of the diluted test sample or the mRNA standard stock solution was added to each well, then 1×TE buffer and 0.1% Triton X-100 buffer were added. The sample was incubated at 37° C. for 10 minutes, and 100 μL RiboGreen reagent (1:200) was added to each well of the test sample in the 96-well plate. The sample was centrifugated, and the data were read using a microplate reader, and processed.

293T cells [5] = assay: Fluorescent detection of Fluc-mRNA (cell transfection efficiency of LNP formulations); assay type: cell-based; details: for Relative light unit (RLU): LNP with 0.3 μg Fluc-mRNA, 96-well plate, 24 hours
Method: as §2
The corresponding reagents were added according to the instructions of the Gaussia Luciferase Assay Kit, and the fluorescence expression intensity of each well was detected by an IVIS fluorescence detection system.

female BALB/C mice [6] = assay: In vivo imaging in mice of Fluc-mRNA LNP formulations (mRNA expression and duration); details: Fluc-mRNA LNP intramuscular; for average radiation intensity, 6 h: 6 h after administration; for average radiation intensity, 24 h: 24 h after administration; for average radiation intensity, 48 h: 48 h after administration; for average radiation intensity, 7 d: 7 d after administration
Method: as §1

293T cells [7] = assay: Fluorescent detection of Fluc-mRNA (cell transfection efficiency of LNP formulations); assay type: cell-based

protein expression in the liver (female BALB/C mice [1]; mouse, in vivo) | PDI [2] | Particle size [2] | Drug loading concentration [4] | Encapsulation efficiency [4] | Total RNA concentration [4] | protein expression in the spleen (female BALB/C mice [1]; mouse, in vivo) | Molecule | Cell survival rate (293T cells [3]) | Relative light unit (RLU) (293T cells [5]) | average radiation intensity, 6 h (female BALB/C mice [6]) | average radiation intensity, 24 h (female BALB/C mice [6]) | average radiation intensity, 48 h (female BALB/C mice [6]) | average radiation intensity, 7 d (female BALB/C mice [6]) | also measured
had protein expression in the liver | 18.2% | 205 nm | 26.88 µg/mL | 63.3% | 37.86 µg/mL | – | CCCCCCCCC(CCCCCC)C(=O)OCCCCCCN(CCCCO)CCCCCCOC(=O)C(CCCCCC)CCCCCCCC (stereo not shown) [ALC-0315, reference compound] | 47.21% | 2189470 RLU | 841020 | 189740 | 40125 | 7014 | –
had protein expression in the liver | – | – | – | – | – | – | CCCCCCCCC(CCCCCCCC)OC(=O)CCCCCCCN(CCO)CCCCCCCC(=O)OCCC(CCCCCC)CCCCCC [Compound 21, reference compound] | 67.84% | 1511024 RLU | 600500 | 111040 | 31540 | 6378 | –
had protein expression in the liver | 16.6% | 144 nm | 32.65 µg/mL | 60.2% | 36.44 µg/mL | – | CCCCCCCCCCCCC(O)CN(C)CCCCCC(=O)OCC(CCCCCC)CCCCCCCC (stereo not shown) [HHMA, reference compound] | 64.27% | 2078940 RLU | 661080 | 120010 | 33346 | 5958 | –
had protein expression in the liver | 22.3% | 154 nm | 26.53 µg/mL | 62.9% | 36.04 µg/mL | had protein expression in the spleen | CCCCCCCCCCCOC(=O)CCCCCN(CCO)CCCCCCCC(=O)OC(CCCCCCCC)CCCCCCCC [SM-102, reference compound] | 67.90% | 1704121 RLU | 691480 | 123380 | 32871 | 6723 | –
had no protein expression in the liver | 5.2% | 150 nm | 36.72 µg/mL | 86.3% | 42.57 µg/mL | – | CCCCCCCCCCOC(=O)CCCCCN(CCO)CCN(CCO)CCCCCC(=O)OCCC(CCCCCC)CCCCCC [YK-411] | 16.33% | 7976 RLU | 5850 | 2022 | 975 | 480 | –
– | 17.7% | 128 nm | 25.02 µg/mL | 74.8% | 33.46 µg/mL | – | CCCCCCCCCCOC(=O)CCCCCN(CCO)CCCN(CCO)CCCCCC(=O)OCCC(CCCCCC)CCCCCC [YK-417] | 21.34% | 117287 RLU | 60480 | 19987 | 7045 | 2284 | –
had no protein expression in the liver | 17.2% | 149 nm | 24.96 µg/mL | 75.6% | 33.01 µg/mL | – | CCCCCCCCCCOC(=O)CCCN(CCO)CCCN(CCO)CCCCCCOC(=O)CC(CCCCCC)CCCCCC [YK-418, 6-((3-((4-(decyloxy)-4-oxobutyl)(2-hydroxyethyl)amino)propyl)(2-hydroxyethyl)amino)hexyl 3-hexylnonanoate] | 21.05% | 111251 RLU | – | – | – | – | –
had no protein expression in the liver | 11.2% | 169 nm | 30.40 µg/mL | 88.3% | 34.44 µg/mL | had protein expression in the spleen | CCCCCCCCC(CCCCCCCC)OC(=O)CCCCCN(CCO)CCCN(CCO)CCCCCC(=O)OC(CCCCCCCC)CCCCCCCC [YK-419, di(heptadecan-9-yl) 6,6′-(propane-1,3-diyl-bis((2-hydroxyethyl)azanediyl))dihexanoate] | 38.92% | 3167322 RLU | – | – | – | – | –
had no protein expression in the liver | 16.1% | 170 nm | 32.84 µg/mL | 92.8% | 35.39 µg/mL | had protein expression in the spleen | CCCCCCCCC(CCCCCCCC)COC(=O)CCCCCN(CCCO)CCCCN(CCCO)CCCCCC(=O)OCC(CCCCCCCC)CCCCCCCC [YK-424, bis(2-octyldecyl) 6,6′-(butane-1,4-diylbis((3-hydroxypropyl)azanediyl))dihexanoate] | 27.93% | 2883414 RLU | – | – | – | – | –
– | 12.1% | 147 nm | 20.01 µg/mL | 56.2% | 31.05 µg/mL | – | bis(3-hexylnonyl) 8,8′-((2-hydroxyethyl) azanediyl)dioctanoate [Compound 23, reference compound] | 69.11% | 1402597 RLU | 581400 | 100970 | 32917 | 6105 | protein expression in the liver (female BALB/C mice [1]; mice, intramuscular Fluc-mRNA LNP, at 6h (FIG. 14)): had protein expression in the liver; Multiple of YK-402 (293T cells [7]; RLU of YK-402 divided by RLU of the lipid named in the row): 3.60; Multiple of YK-403 (293T cells [7]; RLU of YK-403 divided by RLU of the lipid named in the row): 3.74; Multiple of YK-407 (293T cells [7]; RLU of YK-407 divided by RLU of the lipid named in the row): 14.53; Multiple of YK-422 (293T cells [7]; RLU of YK-422 divided by RLU of the lipid named in the row): 4.59; Multiple of YK-423 (293T cells [7]; RLU of YK-423 divided by RLU of the lipid named in the row): 4.44; Ratio relative to SM-102 (RLU, times that of SM-102) (293T cells [7]; RLU of the lipid divided by RLU of SM-102): 0.82; Multiple of YK-401 (293T cells [5]): 4.00
